These results are taken from patent US20140051735A1, “USE OF N-PHENYLETHYLPYRAZOLE CARBOXAMIDE DERIVATIVES OR SALTS THEREOF FOR CONTROLLING POWDERY MILDEW PRIMARY INFECTIONS” (BAYER INTELLECTUAL PROPERTY GMBH, priority 2010, published 2014).

In assay [1] the test system is powdery mildew species. As to conditions: on different crops; cited from earlier work.
Assay [2] relates to powdery mildew primary infections. Briefly: controlling powdery mildew primary infections in perennial crops after application prior to the end of the previous vegetative cycle. As to conditions: in the year of the application and also in the year after. Format: in vivo.

As to `O=C(NCCc1ncc(C(F)(F)F)cc1Cl)c1ccccc1C(F)(F)F` [fluopyram], in assay [1], the “efficacy against powdery mildew species” value was “high level of efficacy”.
Take `COC(c1ccc(Cl)cc1Cl)C(C)NC(=O)c1cn(C)nc1C(F)F` (stereo not drawn) [3-difluoromethyl-1-methyl-1H-pyrazole-4-carboxylic acid [2-(2,4-dichlorophenyl)-2-methoxy-1-methyl-ethyl]-amide]: in assay [2], the “infection of new growing shoots and leaves” value is reported as “delayed”; the “number of early infected shoots” value is recorded as “significantly reduced”.
